Values of other authors in patent US9788539B2, “Platelet protection solution having beta-galactosidase and sialidase inhibitors” (Velico Medical, Inc., priority 2011, dated 2017).

Molecular target: viral, bacterial and mammalian sialidases
Conditions: cited from earlier work

## CC(=O)NC1C(O)C=C(C(=O)O)OC1C(O)C(O)CO (stereo not shown) [DANA]
  Ki: low μM range
